These results are taken from patent US20230414778A1, “COMBINATION OF ANTIBODY-DRUG CONJUGATE WITH ANTI-SIRPalpha ANTIBODY” (DAIICHI SANKYO COMPANY, LIMITED, priority 2020, published 2023).

The test system of test [1] is cells treated with compound (A). To be noted: Clin. Invest. 2020: 130(1): 374-388; cited from earlier work.
Test [2] concerns CT26.WT-reactive T cells in mouse spleen cells. Put plainly: ELISPOT analysis of IFNγ-producing spleen cells. It is filed as in vivo. As for the experimental part: The number of CT26.WT-reactive T cells in mouse spleen cells was determined by Murine IFNγ Single-Color Enzymatic ELISPOT Assay (manufactured by […] TECHNOLOGY LIMITED), more specifically, counting of the number of IFNγ spots produced from individual spleen cells. From each of the mice used in Example 3, the spleen was harvested and the number of spleen cells was adjusted to be 1.0×10^6 cells/mL by use of CTL test medium. CT26.WT cells were treated with 10 μg/mL mitomycin C for 2 hours and washed. Thereafter, the cells were collected, adjusted to be 1.0×10^6 cells/mL by CTL test medium, and used as an antigen. The spleen cells and the antigen were added each in an amount of 100 μL/well in a PVDF-membrane plate pre-coated with an anti-IFNγ antibody and co-cultured at 37° C. for 24 hours. Thereafter, the color was developed using the attached antibody and coloring reagent and the number of IFNγ-producing spleen cells was determined. Comparison between the NCD cell inoculation group and compound (A) or MTX treatment group was made in accordance with the Wilcoxon rank sum test. P value was expressed to four decimal places and the results satisfying P<0.05 (two-sided test) were determined as being significant.

For test [3] the following is noted: Clin. Invest. 2020: 130(1): 374-388; cited from earlier work.
Setting [4] is: drug-treated CT26.WT cells inoculated, anti-SIRPα antibody (5C12) administration.

SMILES strings stand for the structures.

As to `CC[C@@]1(O)C(=O)OCc2c1cc1n(c2=O)Cc2c-1nc1cc(F)c(C)c3c1c2[C@@H](NC(=O)CO)CC3` [compound (A)], the “HMGB1 release from treated cells” value in test [1] is “released”. The “antigen specific T cell induction compared to the MTX treatment group” value in test [2] (ELISPOT, spleen cells) is “tendency to further enhance”. Moreover, the “number of IFNγ-producing spleen cells compared to NCD_PBS” value in test [2] (drug-treated CT26.WT cells inoculated, PBS administration) is recorded as “tendency to increase”. In test [2] (setting [4]), the “number of IFNγ-producing spleen cells compared to NCD_PBS” value is recorded as “significantly increased” and the “number of IFNγ-producing spleen cells compared to compound (A) PBS group” value is recorded as “significantly increased”. For the same compound, the “antitumor effect by vaccination of the treated cells” value in test [3] is given as “limited antitumor effect”.
